One may read the IC50 as the concentration needed to halve the response being measured.

The target of this assay is human plasma kallikrein (Homo sapiens (Human), UniProt P03952). The following applies: human plasma kallikrein 25 pM, substrate 0.5 uM, 1 hour pre-incubation at room temperature, read at t=60 min.
Chain of human plasma kallikrein (P03952 whole entry, looked up): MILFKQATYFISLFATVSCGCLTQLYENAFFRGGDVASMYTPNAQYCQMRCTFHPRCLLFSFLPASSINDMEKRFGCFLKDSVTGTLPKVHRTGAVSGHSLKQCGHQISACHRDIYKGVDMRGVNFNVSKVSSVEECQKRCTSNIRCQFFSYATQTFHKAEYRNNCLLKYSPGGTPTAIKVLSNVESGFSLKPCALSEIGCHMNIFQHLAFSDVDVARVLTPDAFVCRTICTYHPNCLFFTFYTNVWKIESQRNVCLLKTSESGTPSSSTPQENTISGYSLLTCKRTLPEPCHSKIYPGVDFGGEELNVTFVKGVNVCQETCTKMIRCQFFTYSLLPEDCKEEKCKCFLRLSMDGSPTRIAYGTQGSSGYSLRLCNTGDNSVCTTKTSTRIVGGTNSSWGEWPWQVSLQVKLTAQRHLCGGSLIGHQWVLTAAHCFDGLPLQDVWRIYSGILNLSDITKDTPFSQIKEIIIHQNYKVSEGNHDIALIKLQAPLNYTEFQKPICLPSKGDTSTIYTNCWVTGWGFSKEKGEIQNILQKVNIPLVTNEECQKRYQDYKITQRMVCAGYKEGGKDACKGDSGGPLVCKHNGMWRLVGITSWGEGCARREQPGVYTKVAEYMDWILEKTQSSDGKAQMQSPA
Chain of human plasma kallikrein (P03952 whole entry partner, looked up): as the sequence (P03952 whole entry, looked up) above
`Cc1cc(N)nc(C)c1CNC(=O)c1cnn(Cc2csc(Nc3ccccc3)n2)c1` [Example 25, N-((6-amino-2,4-dimethylpyridin-3-yl)methyl)-1-((2-(phenylamino)thiazol-4-yl)methyl)-1H-pyrazole-4-carboxamide] gave a half-inhibitory concentration (IC50) of 109 nM.

`Cc1cc(N)nc(C)c1CNC(=O)c1cnn(Cc2cccc(-c3ccccc3)c2)c1` [Example 115, N-((6-amino-2,4-dimethylpyridin-3-yl)methyl)-1-(biphenyl-3-ylmethyl)-1H-pyrazole-4-carboxamide] gave an IC50 of 3.3 nM.

Take `Cc1cc(N)nc(C)c1CNC(=O)c1cnn(Cc2ccc(OCc3ccccc3)cc2)c1` [Example 94, N-((6-amino-2,4-dimethylpyridin-3-yl)methyl)-1-(4-(benzyloxy)benzyl)-1H-pyrazole-4-carboxamide]: the IC50 is 2.1 nM.

Regarding `Cc1cc(N)nc(C)c1CNC(=O)c1cnn(Cc2ccc(C(=O)N3CCOCC3)cc2)c1` [Example 121, N-((6-amino-2,4-dimethylpyridin-3-yl)methyl)-1-(4-(morpholine-4-carbonyl)benzyl)-1H-pyrazole-4-carboxamide], half-maximal inhibition (IC50) required 369 nM.

Compound `Cc1cc(N)nc(C)c1CNC(=O)c1cnn(Cc2cccc(C(=O)N3CCCCC3)c2)c1` [Example 119, N-((6-amino-2,4-dimethylpyridin-3-yl)methyl)-1-(3-(piperidine-1-carbonyl)benzyl)-1H-pyrazole-4-carboxamide] displayed an IC50 of 289 nM.

For the compound `Cc1cc(N)nc(C)c1CNC(=O)c1cnn(S(=O)(=O)c2cccc(C#N)c2)c1` [Example 37, N-((6-amino-2,4-dimethylpyridin-3-yl)methyl)-1-(3-cyanophenylsulfonyl)-1H-pyrazole-4-carboxamide], inhibition was half-maximal at 5300 nM (IC50).

On to `Cc1cc(N)nc(C)c1CNC(=O)c1cnn(Cc2cccc(Cl)c2)c1` [Example 92, N-((6-amino-2,4-dimethylpyridin-3-yl)methyl)-1-(3-chlorobenzyl)-1H-pyrazole-4-carboxamide], for which the 50% inhibitory concentration (IC50) was determined as 867 nM.

In the case of `Cc1cc(N)nc(C)c1CNC(=O)c1cnn(Cc2cccc(C#N)c2)c1` [Example 81, N-((6-amino-2,4-dimethylpyridin-3-yl)methyl)-1-(3-cyanobenzyl)-1H-pyrazole-4-carboxamide], it took 411 nM to reach half-maximal inhibition (IC50).

In turn, `Cc1cc(N)nc(C)c1CNC(=O)c1cn(Cc2cccc(N3CCCC3)c2)nn1` [Example 43, N-((6-amino-2,4-dimethylpyridin-3-yl)methyl)-1-(3-(pyrolidin-1-yl)benzyl)-1H-1,2,3-triazole-4-carboxamide] displayed an IC50 of 113 nM.

As for `Cc1cc(N)nc(C)c1CNC(=O)c1cn(Cc2ccc(Cn3ccnc3)cc2)nn1` [Example 45, 1-(4-((1H-imidazol-1-yl)methyl)benzyl)-N-((6-amino-2,4-dimethylpyridin-3-yl)methyl)-1H-1,2,3-triazole-4-carboxamide], the half-maximal inhibitory concentration (IC50) is 45 nM.

Take `Cc1cc(N)nc(C)c1CNC(=O)c1cnn(Cc2cccc(C(=O)Nc3ccccc3)c2)c1` [Example 117, N-((6-amino-2,4-dimethylpyridin-3-yl)methyl)-1-(3-(phenylcarbamoyl)benzyl)-1H-pyrazole-4-carboxamide]: the IC50 was 152 nM.

Compound `Cc1cc(N)nc(C)c1CNC(=O)c1ccn(Cc2ccccc2)c1` [Example 70, N-((6-amino-2,4-dimethylpyridin-3-yl)methyl)-1-benzyl-1H-pyrrole-3-carboxamide] gave an IC50 of 4100 nM.

In the case of `Cc1cc(N)nc(C)c1CNC(=O)c1cn(Cc2ccccc2)nc1C` [Example 49, N-((6-amino-2,4-dimethylpyridin-3-yl)methyl)-1-benzyl-3-methyl-1H-pyrazole-4-carboxamide], 679 nM corresponded to half-maximal inhibition (IC50).

As to `Cc1cc(N)nc(C)c1CNC(=O)c1cc(C)n(Cc2ccccc2)c1C` [Example 109, N-((6-amino-2,4-dimethylpyridin-3-yl)methyl)-1-benzyl-2,5-dimethyl-1H-pyrrole-3-carboxamide], the IC50 was found to be 1300 nM.

As to `Cc1cc(N)nc(C)c1CNC(=O)c1cnn(Cc2ccc(OCC(=O)O)cc2)c1` [Example 134, 2-(4-((4-((6-amino-2,4-dimethylpyridin-3-yl)methylcarbamoyl)-1H-pyrazol-1-yl)methyl)phenoxy)acetic acid], the IC50 turned out to be 1100 nM.

Compound `Cc1cc(N)nc(C)c1CNC(=O)c1ncn(Cc2ccc(-c3ccccc3)cc2)n1` [Example 61, N-((6-amino-2,4-dimethylpyridin-3-yl)methyl)-1-(biphenyl-4-ylmethyl)-1H-1,2,4-triazole-3-carboxamide] yielded an IC50 of 46 nM.

Consider `Cc1cc(N)nc(C)c1CNC(=O)c1cnn(Cc2cccc(S(=O)(=O)N3CCOCC3)c2)c1` [Example 116, N-((6-amino-2,4-dimethylpyridin-3-yl)methyl)-1-(3-(morpholinosulfonyl)benzyl)-1H-pyrazole-4-carboxamide], for which inhibition was half-maximal at 197 nM (IC50).

`Cc1cc(N)nc(C)c1CNC(=O)c1cnn(Cc2ncoc2-c2ccccc2)c1` [Example 35, N-((6-amino-2,4-dimethylpyridin-3-yl)methyl)-1-((5-phenyloxazol-4-yl)methyl)-1H-pyrazole-4-carboxamide] registered a half-inhibitory concentration (IC50) of 3900 nM.

For the compound `Cc1cc(N)ncc1CNC(=O)c1cnn(Cc2ccccc2)c1` [Example 138, N-((6-amino-4-methylpyridin-3-yl)methyl)-1-benzyl-1H-pyrazole-4-carboxamide], the IC50 was found to be 62700 nM.

`Cc1cc(N)nc(C)c1CNC(=O)c1cc(Cc2ccccc2)no1` [Example 3, N-((6-amino-2,4-dimethylpyridin-3-yl)methyl)-3-benzylisoxazole-5-carboxamide] yielded an IC50 of 2260 nM.

The compound `Cc1cc(N)nc(C)c1CNC(=O)c1sc(Cc2ccccc2)nc1C` [Example 55, N-((6-amino-2,4-dimethylpyridin-3-yl)methyl)-2-benzyl-4-methylthiazole-5-carboxamide] had an IC50 of 6300 nM.

Compound `Cc1cc(N)nc(C)c1CNC(=O)c1cnn(Cc2ccc(Cl)cc2)c1` [Example 96, N-((6-amino-2,4-dimethylpyridin-3-yl)methyl)-1-(4-chlorobenzyl)-1H-pyrazole-4-carboxamide] displayed an IC50 of 291 nM.

The compound `Cc1ccc2cc(Cc3nc(C(=O)NCc4c(C)cc(N)nc4C)co3)ccc2n1` [Example 170, N-((6-amino-2,4-dimethylpyridin-3-yl)methyl)-2-((2-methylquinolin-6-yl)methyl)oxazole-4-carboxamide] displayed an IC50 of 9.7 nM.

The compound `Cc1cc(N)nc(C)c1CNC(=O)c1ccn(S(=O)(=O)c2ccc3c(ccn3C)c2)c1` [Example 131, N-((6-amino-2,4-dimethylpyridin-3-yl)methyl)-1-(1-methyl-1H-indol-5-ylsulfonyl)-1H-pyrrole-3-carboxamide] came in with an IC50 of 9 nM.

The compound `Cc1nc(Cn2cc(C(=O)NCc3c(C)cc(N)nc3C)cn2)cs1` [Example 97, N-((6-amino-2,4-dimethylpyridin-3-yl)methyl)-1-((2-methylthiazol-4-yl)methyl)-1H-pyrazole-4-carboxamide] returned an IC50 of 1900 nM.

As to `Cc1cc(N)nc(C)c1CNC(=O)c1cnn(Cc2ccc3ccn(C)c3c2)c1` [Example 34, N-((6-amino-2,4-dimethylpyridin-3-yl)methyl)-1-((1-methyl-1H-indol-6-yl)methyl)-1H-pyrazole-4-carboxamide], the IC50 turned out to be 46 nM.

Compound `Cc1cc(N)nc(C)c1CNC(=O)c1cn(Cc2cccc(-n3cccn3)c2)nn1` [Example 42, 1-(3-(1H-pyrazol-1-yl)benzyl)-N-((6-amino-2,4-dimethylpyridin-3-yl)methyl)-1H-1,2,3-triazole-4-carboxamide] had an IC50 of 145 nM.

`Cc1cc(N)nc(C)c1CNC(=O)c1cnn(Cc2ccc(N3CCCC3=O)cc2)c1` [Example 65, N-((6-amino-2,4-dimethylpyridin-3-yl)methyl)-1-(4-(2-oxopyrrolidin-1-yl)benzyl)-1H-pyrazole-4-carboxamide] had an IC50 of 29 nM.

On to `Cc1cncc(Oc2ccc(Cn3cc(C(=O)NCc4c(C)cc(N)nc4C)cn3)cc2)n1` [Example 57, N-((6-amino-2,4-dimethylpyridin-3-yl)methyl)-1-(4-(6-methylpyrazin-2-yloxy)benzyl)-1H-pyrazole-4-carboxamide], for which the 50% inhibitory concentration (IC50) was 144 nM.

`Cc1cn(S(=O)(=O)c2ccccc2)cc1C(=O)NCc1c(C)cc(N)nc1C` [Example 74, N-((6-amino-2,4-dimethylpyridin-3-yl)methyl)-4-methyl-1-(phenylsulfonyl)-1H-pyrrole-3-carboxamide]: half-maximal inhibition (IC50) required 595 nM.

As for `Cc1cc(N)nc(C)c1CNC(=O)c1cnn(Cc2ccc(Cn3c(C)cc(=O)n3C)cc2)c1` [Example 141, N-((6-amino-2,4-dimethylpyridin-3-yl)methyl)-1-(4-((2,5-dimethyl-3-oxo-2,3-dihydro-1H-pyrazol-1-yl)methyl)benzyl)-1H-pyrazole-4-carboxamide], the IC50 stood at 1.2 nM.

In turn, `Cc1cc(N)nc(C)c1CNC(=O)c1cn(Cc2ccc(Cn3cccn3)cc2)cn1` [Example 6, 1-(4-((1H-pyrazol-1-yl)methyl)benzyl)-N-((6-amino-2,4-dimethylpyridin-3-yl)methyl)-1H-imidazole-4-carboxamide] came in with an IC50 of 0.2 nM.

For `Cc1cc(N)nc(C)c1CNC(=O)c1cn(Cc2ccccc2)c2ccccc12` [Example 108, N-((6-amino-2,4-dimethylpyridin-3-yl)methyl)-1-benzyl-1H-indole-3-carboxamide], the IC50 came out at 798 nM.

On to `Cc1cnn(Cc2ccc(Cn3cc(C(=O)NCc4c(C)cc(N)nc4C)cn3)cc2)c1` [Example 146, N-((6-amino-2,4-dimethylpyridin-3-yl)methyl)-1-(4-((4-methyl-1H-pyrazol-1-yl)methyl)benzyl)-1H-pyrazole-4-carboxamide], for which the IC50 is 0.04 nM.

`Cc1cc(N)nc(C)c1CNC(=O)c1cnn(Cc2ccc3c(c2)OCO3)c1` [Example 103, N-((6-amino-2,4-dimethylpyridin-3-yl)methyl)-1-(benzo[d][1,3]dioxol-5-ylmethyl)-1H-pyrazole-4-carboxamide] displayed a half-maximal inhibitory concentration (IC50) of 299 nM.

`Cc1cc(N)nc(C)c1CNC(=O)c1cn(Cc2ccc(Oc3ccccc3)cc2)nn1` [Example 38, N-((6-amino-2,4-dimethylpyridin-3-yl)methyl)-1-(4-phenoxybenzyl)-1H-1,2,3-triazole-4-carboxamide] gave an IC50 of 19 nM.

These data come from patent US9290485B2, “N-((6-amino-pyridin-3-yl)methyl)-heteroaryl-carboxamides” (NOVARTIS AG, priority 2010, dated 2016).
